The target in this experiment is T1, human FXR (NR1H4) (Homo sapiens, UniProt Q96RI1).
T1 construct: host or cells: CHO (Chinese hamster ovary) reporter cells
T1 sequence (Q96RI1 1-486): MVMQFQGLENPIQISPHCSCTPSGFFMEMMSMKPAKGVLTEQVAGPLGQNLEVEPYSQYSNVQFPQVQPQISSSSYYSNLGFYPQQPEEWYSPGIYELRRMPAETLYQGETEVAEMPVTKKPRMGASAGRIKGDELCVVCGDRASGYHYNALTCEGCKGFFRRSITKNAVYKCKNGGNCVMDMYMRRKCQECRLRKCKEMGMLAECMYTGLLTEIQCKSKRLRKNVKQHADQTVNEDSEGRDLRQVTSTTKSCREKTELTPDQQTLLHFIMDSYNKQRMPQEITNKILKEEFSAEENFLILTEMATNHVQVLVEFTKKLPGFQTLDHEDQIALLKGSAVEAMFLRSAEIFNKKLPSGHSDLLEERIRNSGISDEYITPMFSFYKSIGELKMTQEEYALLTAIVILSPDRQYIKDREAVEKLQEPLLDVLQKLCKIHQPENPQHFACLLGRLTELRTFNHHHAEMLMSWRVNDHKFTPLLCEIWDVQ
The experiment can be described thus: Human FXR (NRIH4) Assay, luciferase reporter. The format is cell-based. The note with it: CHO reporter cells expressing human NR1H4, luciferase, 22 hours incubation. The source says: Determination of a ligand mediated Gal4 promoter driven transactivation to quantify ligand binding mediated activation of FXR. FXR Reporter Assay kit purchased from Indigo Bioscience (Catalogue number: IB00601) to determine the potency and efficacy of compound developed by Enanta that can induce FXR activation. The principle application of this reporter assay system is to quantify functional activity of human FXR. The assay utilizes non-human mammalian cells, CHO (Chinese hamster ovary) cells engineered to express human NR1H4 protein (referred to as FXR). Reporter cells also incorporate the cDNA encoding beetle luciferase which catalyzes the substrates and yields photon emission. Luminescence intensity of the reaction is quantified using a plate-reading luminometer, Envision. Reporter Cells include the luciferase reporter gene functionally linked to an FXR responsive promoter. Thus, quantifying changes in luciferase expression in the treated reporter cells provides a sensitive surrogate measure of the changes in FXR activity. EC50 and efficacy (normalize to CDCA set as 100%) is determined by XLFit. The assay is according to the manufacturer's instructions. In brief, the assay was performed in white, 96 well plates using final volume of 100 ul containing cells with different doses of compounds. Retrieve Reporter Cells from −80° C. storage. Perform a rapid thaw of the frozen cells by transferring a 10 ml volume of 37° C. cell recovery medium into the tube of frozen cells. Recap the tube of Reporter Cells and immediately place it in a 37° C. water bath for 5-10 minutes. Retrieve the tube of Reporter Cell Suspension from the water bath. Sanitize the outside surface of the tube with a 70% alcohol swab, and then transfer it into the cell culture hood. Dispense 90 μl of cell suspension into each well of the 96-well Assay Plate. Transfer the plate into 37° C. incubator, allowing the cells adherent to the bottom of the well. Dilute compounds in Dilution Plate (DP), and administrate to cells at Assay Plate (AP). DMSO content of the samples was kept at 0.2%. Cells were incubated for additional 22 hours before luciferase activities were measured. Thirty minutes before intending to quantify FXR activity, remove Detection Substrate and Detection Buffer from the refrigerator and place them in a low-light area so that they may equilibrate to room temperature. Remove the plate's lid and discard all media contents by ejecting it into an appropriate waste container. Gently tap the inverted plate onto a clean absorbent paper towel to remove residual droplets. Cells will remain tightly adhered to well bottoms. Add 100 μl of luciferase detection reagent to each well of the assay plate. Allow the assay plate to rest at room temperature for at least 5 minutes following the addition of LDR. Set the instrument (Envision) to perform a single 5 second “plate shake” prior to reading the first assay well. Read time may be 0.5 second (500 mSec) per well. EC50 and Efficacy (normalize to CDCA set as 100%) is determined by XLFit.
The efficacy was normalized to CDCA set as 100%.
On the technique in general: Reporter assays use an easily measured gene product as a stand-in for the process of interest.

As a reminder, the EC50 is the concentration at which the effect is half-maximal. A low value points to an effect from little substance. `N#Cc1cc(C2CC2)cc2nc(NC3C4CCC3CC(OCc3c(-c5ccccc5OC(F)(F)F)noc3C3CC3)C4)cnc12` (stereo not drawn) [Example 27]: the EC50 is 25 to 500 nM. As to `NS(=O)(=O)c1ccc2nc(NC3C4CCC3CC(OCc3c(-c5ccccc5OC(F)(F)F)noc3C3CC3)C4)sc2c1` [Example 8, 2-(((1R,3r,5S,8s)-3-((5-cyclopropyl-3-(2-(trifluoromethoxy)phenyl)isoxazol-4-yl)methoxy)bicyclo[3.2.1]octan-8-yl)amino)benzo[d]thiazole-6-sulfonamide], the EC50 was in the range of 25 to 500 nM.

`FC(F)(F)Oc1ccccc1-c1noc(C2CC2)c1COC1CC2CCC(C1)C2Nc1ccc(-c2nnn[nH]2)cn1` [Example 8-5, N-((1R,3r,5S,8s)-3-((5-cyclopropyl-3-(2-(trifluoromethoxy)phenyl)isoxazol-4-yl)methoxy)bicyclo[3.2.1]octan-8-yl)-5-(1H-tetrazol-5-yl)pyridin-2-amine] returned a concentration giving a half-maximal response (EC50) of 25 to 500 nM.

`CC(C)Oc1cc(C(=O)O)cc2sc(N[C@@H]3C[C@@H]4C[C@H]3C[C@@H]4OCc3c(-c4ccccc4OC(F)(F)F)noc3C3CC3)nc12` [Example 6] yielded an EC50 of 25 to 500 nM. The result for `CC(C)Oc1cc(C(=O)O)cc2sc(OC3C4CCC3CC(OCc3c(-c5ccccc5OC(F)(F)F)noc3C3CC3)C4)nc12` (stereo not drawn) [Example 18] reads 25 to 500 nM. `N#Cc1cccc2ncc(NC3C4CCC3CC(OCc3c(-c5ccccc5OC(F)(F)F)noc3C3CC3)C4)nc12` (stereo not drawn) [Example 13-2]: the EC50 is above 500 nM. Take `CC(C)Oc1cc(C#N)cc2sc(NC3C4CCC3CC(OCc3c(-c5ccccc5OC(F)(F)F)noc3C3CC3)C4)nc12` (stereo not drawn) [Example 13-6]: the concentration giving a half-maximal response (EC50) was below 25 nM. Next, `CC(C)Oc1cc(C(=O)O)cc2sc(N[C@H]3C[C@@H]4C[C@H]3C[C@@H]4OCc3c(-c4ccccc4OC(F)(F)F)noc3C3CC3)nc12` [Example 5]: 25 to 500 nM; `FC(F)(F)Oc1ccccc1-c1noc(C2CC2)c1COC1CC2CCC(C1)C2Nc1cnc2c(-c3nnn[nH]3)cccc2n1` (stereo not drawn) [Example 46]: below 25 nM; `O=S(=O)(NC1C2CCC1CC(OCc1c(-c3ccccc3OC(F)(F)F)noc1C1CC1)C2)c1cccc2ccccc12` (stereo not drawn) [Example 9-11]: below 25 nM. Compound `CC(C)Oc1cc(-c2nnn[nH]2)cc2sc(NC3C4CCC3CC(OCc3c(-c5ccccc5OC(F)(F)F)noc3C3CC3)C4)nc12` (stereo not drawn) [Example 13-7] registered a 50% effective concentration (EC50) below 25 nM.

As for `O=C(O)c1cc(F)c2nc(NC3C4CCC3CC(NCc3c(-c5ccccc5OC(F)(F)F)noc3C3CC3)C4)sc2c1` (stereo not drawn) [Example 16], the concentration for a half-maximal effect (EC50) was 25 to 500 nM.

Consider `O=C(O)c1cccc(S(=O)(=O)C2C3CCC2CC(OCc2c(-c4ccccc4OC(F)(F)F)noc2C2CC2)C3)c1` (stereo not drawn) [Example 11-8], for which the concentration for a half-maximal effect (EC50) is above 500 nM. In the case of `N#Cc1ccc2nc(NC3C4CCC3CC(OCc3c(-c5ccccc5OC(F)(F)F)noc3C3CC3)C4)cnc2c1` (stereo not drawn) [Example 35], the half-maximal effective concentration (EC50) was below 25 nM. Turning to `NS(=O)(=O)c1ccc2nc(NC3C4CCC3CC(OCc3c(-c5ccccc5OC(F)(F)F)noc3C3CC3)C4)cnc2c1` (stereo not drawn) [Example 8-2], the EC50 is 25 to 500 nM.

In turn, `O=C(O)c1cc(F)c2nc(SC3C4CCC3CC(OCc3c(-c5ccccc5OC(F)(F)F)noc3C3CC3)C4)sc2c1` (stereo not drawn) [Example 11-17] came in with an EC50 below 25 nM. Compound `O=C(O)c1cccc2nc(NC3C4CCC3CC(OCc3c(-c5ccccc5OC(F)(F)F)noc3C3CC3)C4)cnc12` (stereo not drawn) [Example 3-7] returned a concentration giving a half-maximal response (EC50) below 25 nM.

On to `O=C(O)c1cccc(SC2C3CCC2CC(OCc2c(-c4ccccc4OC(F)(F)F)noc2C2CC2)C3)c1` (stereo not drawn) [Example 11-6], for which the concentration for a half-maximal effect (EC50) lay within 25 to 500 nM. `O=C(O)c1cc(C2CC2)cc2nc(NC3C4CCC3CC(OCc3c(-c5ccccc5OC(F)(F)F)noc3C3CC3)C4)cnc12` (stereo not drawn) [Example 30] came in with a half-maximal effective concentration (EC50) below 25 nM. In turn, `COC(=O)c1ccc2cc(S(=O)(=O)NC3C4CCC3CC(OCc3c(-c5ccccc5OC(F)(F)F)noc3C3CC3)C4)ccc2c1` (stereo not drawn) [Example 9-6] displayed an EC50 below 25 nM. Turning to `O=C(O)c1ccc(S(=O)(=O)C2C3CCC2CC(OCc2c(-c4ccccc4OC(F)(F)F)noc2C2CC2)C3)cc1` (stereo not drawn) [Example 11-15], the EC50 fell in the range of 25 to 500 nM. Compound `CCOC(=O)c1cccc(SC2C3CCC2CC(OCc2c(-c4ccccc4OC(F)(F)F)noc2C2CC2)C3)c1` (stereo not drawn) [Example 11-5] had an EC50 above 500 nM.

As for `O=S(=O)(NC1C2CCC1CC(OCc1c(-c3ccccc3OC(F)(F)F)noc1C1CC1)C2)c1cccc2ccncc12` (stereo not drawn) [Example 9-15], the 50% effective concentration (EC50) is below 25 nM. As for `FC(F)(F)Oc1ccccc1-c1noc(C2CC2)c1COC1CC2CCC(C1)C2Nc1nc2ccc(C(F)(F)F)cc2s1` (stereo not drawn) [Example 8-6], the EC50 lay in the range of 25 to 500 nM. On to `COC(=O)c1ccc(S(=O)(=O)C2C3CCC2CC(OCc2c(-c4ccccc4OC(F)(F)F)noc2C2CC2)C3)cc1` (stereo not drawn) [Example 11-14], for which the EC50 lay in the range of 25 to 500 nM. In turn, `CCOC(=O)c1cc(F)c2nc(SC3C4CCC3CC(NCc3c(-c5ccccc5OC(F)(F)F)noc3C3CC3)C4)sc2c1` [Example 14, ethyl 2-(((1R,3r,5S,8s)-3-(((5-cyclopropyl-3-(2-(trifluoromethoxy)phenyl)isoxazol-4-yl)methyl)amino)bicyclo[3.2.1]octan-8-yl)thio)-4-fluorobenzo[d]thiazole-6-carboxylate] gave an EC50 above 500 nM. With `O=C(O)c1cccc2c(S(=O)(=O)NC3C4CCC3CC(OCc3c(-c5ccccc5OC(F)(F)F)noc3C3CC3)C4)cccc12` (stereo not drawn) [Example 9-5], the half-maximal effective concentration (EC50) was below 25 nM. Next, `O=C(O)c1ccc2nc(SC3C4CCC3CC(OCc3c(-c5ccccc5OC(F)(F)F)noc3C3CC3)C4)sc2c1` (stereo not drawn) [Example 11-10]: below 25 nM. As to `O=S(=O)(NC1C2CCC1CC(OCc1c(-c3ccccc3OC(F)(F)F)noc1C1CC1)C2)c1ccc2ccccc2c1` (stereo not drawn) [Example 9-12], the EC50 was below 25 nM.

`O=C(O)c1cc(F)c2nc(NC3C4CCC3CC(OCc3c(-c5ccccc5OC(F)(F)F)noc3C3CC3)C4)sc2c1` (stereo not drawn) [Example 3-2] gave an EC50 below 25 nM. The result for `CC(C)Oc1cc(C(=O)O)cc2sc(NC3C4CCC3CC(OCc3c(-c5ccccc5OC(F)(F)F)noc3C3CC3)C4)nc12` [Example 3, 2-(((1R,3r,5S,8s)-3-((5-cyclopropyl-3-(2-(trifluoromethoxy)phenyl)isoxazol-4-yl)methoxy)bicyclo[3.2.1]octan-8-yl)amino)-4-isopropoxybenzo[d]thiazole-6-carboxylic acid] reads below 25 nM; that for `O=C(O)c1ccnc(NC2C3CCC2CC(OCc2c(-c4ccccc4OC(F)(F)F)noc2C2CC2)C3)c1` (stereo not drawn) [Example 3-3], 25 to 500 nM. `O=S(=O)(NC1C2CCC1CC(OCc1c(-c3ccccc3OC(F)(F)F)noc1C1CC1)C2)c1cccc2cnccc12` (stereo not drawn) [Example 9-14] showed an EC50 below 25 nM.

`O=C(O)c1ccc2nc(NC3C4CCC3CC(OCc3c(-c5ccccc5OC(F)(F)F)noc3C3CC3)C4)ncc2c1` (stereo not drawn) [Example 3-12] registered a concentration for a half-maximal effect (EC50) below 25 nM. The compound `Fc1ccc(CCNC2C3CCC2CC(OCc2c(-c4ccccc4OC(F)(F)F)noc2C2CC2)C3)cc1` (stereo not drawn) [Example 15-2] had an EC50 above 500 nM.

Consider `FC(F)(F)Oc1ccccc1-c1noc(C2CC2)c1CO[C@H]1C[C@H]2CC[C@@H](C1)[C@@H]2Nc1cnc2c(-c3nnn[nH]3)cccc2n1` [Example 13-3, N-((1R,3r,5S,8s)-3-((5-cyclopropyl-3-(2-(trifluoromethoxy)phenyl)isoxazol-4-yl)methoxy)bicyclo[3.2.1]octan-8-yl)-5-(1H-tetrazol-5-yl)quinoxalin-2-amine], for which the EC50 is below 25 nM.

Source of the values: patent US11555032B2, “Isoxazole derivatives as FXR agonists and methods of use thereof” (Enanta Pharmaceuticals, Inc., priority 2019, dated 2023).
